According to the NIST ThermoML archive (doi:10.1016/j.fluid.2016.05.030):

Assays:
[1] = 101.33 kPa, Liquid; for viscosity: Concentric cylinders viscometry; for mass density: Vibrating tube method
[2] = molar heat capacity at constant pressure; details: 298.15 K; 101.33 kPa; Liquid; Drop calorimetry

CCCCCCCc1cccc[n+]1CC.O=S(=O)([N-]S(=O)(=O)C(F)(F)F)C(F)(F)F
[1]
Details	mass density [kg/m3]	viscosity [mPa·s]
293.15 K	1325.1	180.53
298.15 K	1320.8	134.1
303.15 K	1316.5	102.47
308.15 K	1312.2	79.9
313.15 K	1307.9	63.6
318.15 K	1303.6	51.17
323.15 K	1299.4	41.88
328.15 K	1295.2	34.73
333.15 K	1290.9	29.21
338.15 K	1286.7	24.71
343.15 K	1282.5	21.16
348.15 K	1278.3	18.28
353.15 K	1274.2	15.97
358.15 K	1270.1	13.97
363.15 K	1266	12.34

Details	molar heat capacity at constant pressure [J/K/mol]
[2]	717.5

CCCCc1cccc[n+]1CC.O=S(=O)([N-]S(=O)(=O)C(F)(F)F)C(F)(F)F
[1]
Details	mass density [kg/m3]	viscosity [mPa·s]
293.15 K	1413.7	146.84
298.15 K	1409.1	109.82
303.15 K	1404.5	84.49
308.15 K	1400	66.34
313.15 K	1395.4	53.17
318.15 K	1390.9	43.11
323.15 K	1386.4	35.55
328.15 K	1381.9	29.7
333.15 K	1377.4	25.14
338.15 K	1373	21.42
343.15 K	1368.5	18.45
348.15 K	1364.1	16.04
353.15 K	1359.7	14.09
358.15 K	1355.4	12.39
363.15 K	1351	11

Details	molar heat capacity at constant pressure [J/K/mol]
[2]	623.6

CCCCCc1cccc[n+]1CC.O=S(=O)([N-]S(=O)(=O)C(F)(F)F)C(F)(F)F
[1]
Details	mass density [kg/m3]	viscosity [mPa·s]
293.15 K	1375.6	144.37
298.15 K	1371.1	108.78
303.15 K	1366.6	83.99
308.15 K	1362.2	66.14
313.15 K	1357.8	53
318.15 K	1353.4	43.06
323.15 K	1349	35.52
328.15 K	1344.6	29.65
333.15 K	1340.2	25.11
338.15 K	1335.8	21.4
343.15 K	1331.5	18.44
348.15 K	1327.1	16.02
353.15 K	1322.8	14.06
358.15 K	1318.6	12.36
363.15 K	1314.3	10.97

Details	molar heat capacity at constant pressure [J/K/mol]
[2]	652.7

CCCCCCCCCc1cccc[n+]1CC.O=S(=O)([N-]S(=O)(=O)C(F)(F)F)C(F)(F)F
Details	molar heat capacity at constant pressure [J/K/mol]
[2]	778.5

CCCc1cccc[n+]1CC.O=S(=O)([N-]S(=O)(=O)C(F)(F)F)C(F)(F)F
[1]
Details	mass density [kg/m3]	viscosity [mPa·s]
293.15 K	1452	139.89
298.15 K	1447.2	105.02
303.15 K	1442.5	81.09
308.15 K	1437.8	63.9
313.15 K	1433.1	51.37
318.15 K	1428.4	41.8
323.15 K	1423.8	34.57
328.15 K	1419.2	28.96
333.15 K	1414.6	24.59
338.15 K	1410	21
343.15 K	1405.4	18.15
348.15 K	1400.9	15.82
353.15 K	1396.4	13.94
358.15 K	1391.9	12.3
363.15 K	1387.5	10.95

Details	molar heat capacity at constant pressure [J/K/mol]
[2]	593.9

CCCCCCc1cccc[n+]1CC.O=S(=O)([N-]S(=O)(=O)C(F)(F)F)C(F)(F)F
[1]
Details	mass density [kg/m3]	viscosity [mPa·s]
293.15 K	1348.7	159.82
298.15 K	1344.3	119.41
303.15 K	1339.9	91.77
308.15 K	1335.5	71.93
313.15 K	1331.2	57.52
318.15 K	1326.8	46.51
323.15 K	1322.5	38.22
328.15 K	1318.2	31.83
333.15 K	1313.9	26.87
338.15 K	1309.7	22.8
343.15 K	1305.6	19.59
348.15 K	1301.4	16.98
353.15 K	1297.1	14.86
358.15 K	1292.9	13.04
363.15 K	1288.8	11.54

Details	molar heat capacity at constant pressure [J/K/mol]
[2]	685.5

CCCCCCCCc1cccc[n+]1CC.O=S(=O)([N-]S(=O)(=O)C(F)(F)F)C(F)(F)F
[1]
Details	mass density [kg/m3]	viscosity [mPa·s]
293.15 K	1301.7	216.19
298.15 K	1297.4	159.29
303.15 K	1293.2	120.76
308.15 K	1289	93.45
313.15 K	1284.8	73.88
318.15 K	1280.6	59
323.15 K	1276.4	47.97
328.15 K	1272.3	39.54
333.15 K	1268.1	33.06
338.15 K	1264	27.82
343.15 K	1259.9	23.71
348.15 K	1255.8	20.39
353.15 K	1251.7	17.72
358.15 K	1247.6	15.44
363.15 K	1243.6	13.58

Details	molar heat capacity at constant pressure [J/K/mol]
[2]	749.4

CCCCCCCCCCc1cccc[n+]1CC.O=S(=O)([N-]S(=O)(=O)C(F)(F)F)C(F)(F)F
Details	molar heat capacity at constant pressure [J/K/mol]
[2]	811.2

CCc1cccc[n+]1CC.O=S(=O)([N-]S(=O)(=O)C(F)(F)F)C(F)(F)F [1,2-diethylpyridin-1-ium bis((trifluoromethyl)sulfonyl)imide]
[1]
Details	mass density [kg/m3]	viscosity [mPa·s]
293.15 K	1475.5	87.87
298.15 K	1470.6	68.77
303.15 K	1465.8	54.95
308.15 K	1461.1	44.69
313.15 K	1456.3	36.91
318.15 K	1451.6	30.88
323.15 K	1446.9	26.16
328.15 K	1442.2	22.38
333.15 K	1437.5	19.4
338.15 K	1432.9	16.9
343.15 K	1428.3	14.86
348.15 K	1423.7	13.16
353.15 K	1419.1	11.75
358.15 K	1414.6	10.52
363.15 K	1410	9.483

Details	molar heat capacity at constant pressure [J/K/mol]
[2]	566.1
